According to ChEMBL document CHEMBL1126415, “Phosphonate derivatives of N9-benzylguanine: a new class of potent purine nucleoside phosphorylase inhibitors” (Bioorg Med Chem Lett, 1992):

What was measured:
[1] = biological target: T1, Purine nucleoside phosphorylase (Homo sapiens, UniProt P00491); assay: Inhibitory concentration against human erythrocytic purine nucleoside phosphorylase in the presence of 50 mM (pi) […]
T1 sequence (P00491 whole entry): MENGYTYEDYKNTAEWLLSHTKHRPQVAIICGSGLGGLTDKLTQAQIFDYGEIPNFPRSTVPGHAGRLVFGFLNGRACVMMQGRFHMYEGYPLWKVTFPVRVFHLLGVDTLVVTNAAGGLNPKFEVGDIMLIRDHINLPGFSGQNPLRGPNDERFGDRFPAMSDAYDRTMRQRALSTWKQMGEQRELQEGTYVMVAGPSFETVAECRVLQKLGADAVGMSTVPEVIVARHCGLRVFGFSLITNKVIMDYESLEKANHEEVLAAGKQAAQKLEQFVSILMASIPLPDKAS

[2] = biological target: T2, Purine nucleoside phosphorylase (Bos taurus, UniProt P55859); assay: Inhibitory concentration against calf spleen purine nucleoside phosphorylase in the presence of 50 mM (pi) […]
T2 sequence (P55859 whole entry): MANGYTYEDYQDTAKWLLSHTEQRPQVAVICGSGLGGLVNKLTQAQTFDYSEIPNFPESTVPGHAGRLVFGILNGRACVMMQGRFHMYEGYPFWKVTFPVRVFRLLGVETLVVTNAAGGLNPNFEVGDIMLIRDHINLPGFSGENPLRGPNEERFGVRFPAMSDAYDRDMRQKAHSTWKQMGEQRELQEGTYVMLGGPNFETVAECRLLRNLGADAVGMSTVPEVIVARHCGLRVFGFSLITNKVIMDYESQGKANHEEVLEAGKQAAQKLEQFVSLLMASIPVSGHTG

[3] = biological target: T2, Purine nucleoside phosphorylase; assay: Inhibitory activity against calf spleen purine nucleoside phosphorylase in the presence of 1 mM (pi) […]
[4] = biological target: T1, Purine nucleoside phosphorylase; assay: Inhibitory activity against human erythrocytic purine nucleoside phosphorylase in the presence of 1 mM (pi) […]
[5] = biological target: T1, Purine nucleoside phosphorylase; assay: Tested for its inhibitory activity against human erythrocytic purine nucleoside phosphorylase

Ki [5] [nM]	SMILES	IC50 [1] [nM]	IC50 [2] [nM]	other results
–	Nc1nc(O)c2ncn(Cc3ccccc3C(F)C(F)(F)P(=O)(O)O)c2n1 (stereo not given)	85	100	–
–	Nc1nc(O)c2ncn(Cc3ccccc3CC(F)(F)P(=O)(O)O)c2n1	–	200	–
–	Nc1nc(O)c2ncn(Cc3ccccc3/C=C(\F)P(=O)(O)O)c2n1	–	60	Ki [3]: 0.8 nM
–	Nc1nc(O)c2ncn(Cc3ccccc3/C=C/P(=O)(O)O)c2n1	155	85	Ki [4]: 3.2 nM
18	Nc1nc2c(ncn2CCCCC(F)(F)P(=O)(O)O)c(=O)[nH]1	–	–	–
200	Nc1nc(O)c2nc(N)n(Cc3ccccc3)c2n1	–	–	–
